# Assay results from patent US9724312B2, “Agent for the prevention, improvement or treatment of retinal disease” (ROHTO PHARMACEUTICAL CO., LTD., priority 2012, dated 2017).
# Experiments:
# [1] = test system: ARPE-19; assay: Protective effect for retinal pigment epithelial cells against oxidative stress by hydrogen peroxide; assay type: cell-based, human; settings: all-trans form content 280 μM, 14 h, then 750 μM hydrogen peroxide 2 h, FIG. 4, n=3
# Excerpt: The involvement of oxidative stress in ophthalmologic diseases has been widely reported. Such involvement has been observed in, in addition to glaucoma and cataract, retinal diseases such as retinal diseases due to diabetes, hypertension, hyperlipemia, etc., age-related macular degeneration, retinopathy of prematurity, retinal vascular occlusion, retinal light damage, etc. (Nippon Ganka Gakkai Zasshi. 112, 22-29 (2008)). In the retina, the retinal pigment epithelium exists in an environment in which reactive oxygen easily generates (Invest Opthalmol V is Sci. 2006 July 47(7): 3164-3177). […]
# After 2 hours of incubation, the cell culture supernatant was removed, and 200 μL of PBS was added to each well and promptly removed. Then, 100 μL of an equivalent mixture of a cell viability detection reagent Cell Titer-Glo (Promega) and PBS was added to each well and the luminescence produced by the reaction with ATP in living cells was measured with a luminometer (GloMax; Promega). The cell viability was calculated from the measured luminescence by the following formula and the cytoprotective effect of GGA against oxidative stress by hydrogen peroxide was examined. Cell viability(%)=100×[(luminescence of base- or GGA-treated group)/(luminescence of non-treated group)]
# [2] = test system: rat models with glaucoma induced by NMDA; assay: Protective effect for retinal ganglion cells against nerve damage by NMDA (thickness of inner plexiform layer); assay type: in vivo
# Excerpt: In recent years the glutamate analogue NMDA (N-methyl-D-aspartate) has been widely reported to be one of causative agents of neurodegenerative diseases including Alzheimer's disease. In the ophthalmic field, NMDA is considered to be involved in optic nerve damage in glaucoma (Brain Research Bulletin, 81 (2010) 349-358). Accordingly, in this experiment rat models with glaucoma induced by NMDA were used to evaluate the neuroprotective effect of GGA.
# To Sprague-Dawley (SD) rats, the all-trans form, the 5Z-mono-cis form and teprenone were separately pre-administered by oral administration (Test Example 1), intravitreal administration (Test Example 2) or ocular instillation administration (Test Example 3) and 5 μL of NMDA was administered into the vitreous body to induce nerve damage. For Test Example 2, a marketed therapeutic eye drop for glaucoma, AIPHAGAN (trade name), was intravitreally administered as a positive control once a day for five days. For each of Test Examples, a base not containing GGA or AIPHAGAN was administered as a control in the same manner as described above.
# The dosage and regimen of Test Examples 1 to 3 are shown in Table 1 and the constitution of the base used in each tests are shown in Table 2.
# Three days after administration of NMDA, the eyeballs were harvested, fixed with half Karnovsky's fixative for 24 hours, embedded in paraffin, thin sectioned and stained with hematoxylin-eosin (HE) to prepare histopathological sections. The histological sections were observed under an optical microscope and the thickness (μm) of the inner plexiform layer (IPL) of the retina was measured. From the thickness of the inner plexiform layer (IPL) of the retina, the neuroprotective effects of the test preparations were evaluated.
smiles,measurement,setting,value
"CC(=O)CC/C=C(\C)CC/C=C(\C)CC/C=C(\C)CCC=C(C)C [all-trans form, (5E,9E,13E)-6,10,14,18-tetramethyl-5,9,13,17-nonadecatetrae n-2-one]",cell viability compared with base-treated group,[1],significantly higher cell viabilities
same,neuroprotective effect against nerve damage by NMDA compared with base (IPL thickness),"[2]; Test Example 1: oral 800 mg/kg, 2 days, once a day, NMDA 4 mM, FIG. 6, Dunnett",significant neuroprotective effects
same,neuroprotective effect against nerve damage by NMDA compared with base (IPL thickness),"[2]; Test Example 2: intravitreal 0.05% w/v, 5 days, once a day, NMDA 40 mM, FIG. 7, Tukey-Kramer",significant neuroprotective effects
same,neuroprotective effect compared with AIPHAGAN Ophthalmic Solution 0.1%,"[2]; Test Example 2: intravitreal 0.05% w/v, 5 days, NMDA 40 mM, FIG. 7",significantly superior neuroprotective effect
same,neuroprotective effect against nerve damage by NMDA compared with base (IPL thickness),"[2]; Test Example 3: ocular instillation 1% w/v, 5 days, 5 times per day, NMDA 4 mM, FIG. 9, t-test",significant neuroprotective effect
